# Laboratory results published in the OligoGym collection.
# Where “and” joins values, the source holds several entries; their conditions need not be identical. Identical values can stand only once. After the bases stand the sugars from the 5' end (letter, count) and the backbone: PS all phosphorothioate, else s phosphorothioate and o phosphodiester by linkage. Methylation of C is not given here. e = 2'-O-(2-methoxyethyl) (MOE); k = constrained ethyl (cEt); d = 2'-deoxy (DNA)
# Target: SOD1
# Details: ASO
sequence,measurement,setting,value
"AGTGTTTAATGTTTATC (sugars e2 k2 d8 k2 e3, PS)",target mRNA inhibition,"HepG2, 0.1875 µM",46%
same,target mRNA inhibition,"HepG2, 0.75 µM",74%
same,target mRNA inhibition,"HepG2, 3 µM",84%
same,target mRNA inhibition,"HepG2, 5 µM",88%
same,target mRNA inhibition,"HepG2, 12 µM",81%
"AGTTTAATACCCATCTG (sugars e2 k2 d9 k2 e2, PS)",target mRNA inhibition,"HepG2, 5 µM",43%
"AGTTTCTCACTACAGGT (sugars e2 k2 d8 k2 e3, PS)",target mRNA inhibition,"HepG2, 5 µM",33%
"ATAACTCGCTAGGCCACGCC (sugars e5 d10 e5, PS)",target mRNA inhibition,"HepG2, 4 µM",12%
"ATAAGTGCCATACAGGG (sugars e2 k2 d8 k2 e3, PS)",target mRNA inhibition,"HepG2, 5 µM",36%
"ATAATAAGTGCCATACA (sugars e2 k2 d8 k2 e3, PS)",target mRNA inhibition,"HepG2, 5 µM",27%
"ATAATAAGTGCCATACAGGG (sugars e5 d10 e5, PS)",target mRNA inhibition,"HepG2, 5 µM",18%
"ATACAGGGTTTTTATTC (sugars e3 k2 d7 k2 e3, PS)",target mRNA inhibition,"HepG2, 3 µM",3%
"ATACATTTCTACAGCTA (sugars e3 k2 d7 k2 e3, PS)",target mRNA inhibition,"HepG2, 0.1875 µM",34%
same,target mRNA inhibition,"HepG2, 0.75 µM",56%
same,target mRNA inhibition,"HepG2, 3 µM",57% and 82%
same,target mRNA inhibition,"HepG2, 12 µM",93%
"ATCAGTTTCTCACTACA (sugars e2 k2 d8 k2 e3, PS)",target mRNA inhibition,"HepG2, 5 µM",31%
"ATCAGTTTCTCACTACAGGT (sugars e5 d10 e5, PS)",target mRNA inhibition,"HepG2, 5 µM",22%
"ATCCATGCAGGCCTTCA (sugars e3 k2 d7 k2 e3, PS)",target mRNA inhibition,"HepG2, 3 µM",27%
"ATCTGTGATTTAAGTCT (sugars e2 k2 d9 k2 e2, PS)",target mRNA inhibition,"HepG2, 5 µM",37%
"ATGCAGGCCTTCAGTCA (sugars e3 k2 d7 k2 e3, PS)",target mRNA inhibition,"HepG2, 3 µM",37%
"ATGGAATCCATGCAGGC (sugars e3 k2 d7 k2 e3, PS)",target mRNA inhibition,"HepG2, 3 µM",9%
"ATGTTTATCAGGATAC (sugars ekddddddddekekee, linkages s1 o1 s8 o3 s2)",target mRNA inhibition,"A431, 0.12 µM",0%
same,target mRNA inhibition,"A431, 0.6 µM",7%
same,target mRNA inhibition,"A431, 3 µM",26%
same,target mRNA inhibition,"A431, 15 µM",59%
same,target mRNA inhibition,"HepG2, 0.222 µM",64%
same,target mRNA inhibition,"HepG2, 0.667 µM",81%
same,target mRNA inhibition,"HepG2, 2 µM",90%
same,target mRNA inhibition,"HepG2, 6 µM",94%
"ATGTTTATCAGGATACA (sugars e2 k2 d9 k2 e2, PS)",target mRNA inhibition,"HepG2, 0.1875 µM",27%
same,target mRNA inhibition,"HepG2, 0.75 µM",65%
same,target mRNA inhibition,"HepG2, 3 µM",88%
same,target mRNA inhibition,"HepG2, 4 µM",81%
same,target mRNA inhibition,"HepG2, 12 µM",96%
"ATGTTTATCAGGATACA (sugars e4 d8 e5, linkages s1 o2 s9 o2 s2)",target mRNA inhibition,"A431, 0.062 µM",0%
same,target mRNA inhibition,"A431, 0.185 µM",4%
same,target mRNA inhibition,"A431, 0.556 µM",10%
same,target mRNA inhibition,"A431, 1.667 µM",33%
same,target mRNA inhibition,"A431, 5 µM",56%
same,target mRNA inhibition,"A431, 15 µM",50%
same,target mRNA inhibition,"SH-SY5Y, 0.062 µM",0%
same,target mRNA inhibition,"SH-SY5Y, 0.185 µM",4%
same,target mRNA inhibition,"SH-SY5Y, 0.556 µM",32%
same,target mRNA inhibition,"SH-SY5Y, 1.667 µM",37%
same,target mRNA inhibition,"SH-SY5Y, 5 µM",61%
same,target mRNA inhibition,"SH-SY5Y, 15 µM",83%
"ATGTTTATTGGGCGATC (sugars e2 k2 d8 k2 e3, PS)",target mRNA inhibition,"HepG2, 0.1875 µM",15%
same,target mRNA inhibition,"HepG2, 0.75 µM",36%
same,target mRNA inhibition,"HepG2, 3 µM",79%
same,target mRNA inhibition,"HepG2, 4 µM",76%
same,target mRNA inhibition,"HepG2, 12 µM",95%
"ATTACTTTCCTTCTGCT (sugars e3 k2 d7 k2 e3, PS)",target mRNA inhibition,"HepG2, 3 µM",15%
"ATTTAAGTCTGGCAAAATAC (sugars e5 d10 e5, PS)",target mRNA inhibition,"HepG2, 5 µM",16%
"CAAAATACAGGTCATTG (sugars e2 k2 d8 k2 e3, PS)",target mRNA inhibition,"HepG2, 5 µM",44%
"CAAAATACAGGTCATTG (sugars e2 k2 d9 k2 e2, PS)",target mRNA inhibition,"HepG2, 5 µM",56%
"CAAAGAAATTCTGACAAGTT (sugars e5 d10 e5, PS)",target mRNA inhibition,"HepG2, 5 µM",7%
"CAAGCCAAACGACTTCCAGC (sugars e5 d10 e5, PS)",target mRNA inhibition,"HepG2, 0.1875 µM",9%
same,target mRNA inhibition,"HepG2, 0.75 µM",27%
same,target mRNA inhibition,"HepG2, 3 µM",59%
same,target mRNA inhibition,"HepG2, 5 µM",54%
same,target mRNA inhibition,"HepG2, 12 µM",89%
"CAAGTTTAATACCCATC (sugars e3 k2 d7 k2 e3, PS)",target mRNA inhibition,"HepG2, 3 µM",37%
"CAATTACACCACAAGCC (sugars e2 k2 d9 k2 e2, PS)",target mRNA inhibition,"HepG2, 4 µM",61%
"CACCACAAGCCAAACGA (sugars e2 k2 d8 k2 e3, PS)",target mRNA inhibition,"HepG2, 4 µM",48%
"CACCTTCACTGGTCCAT (sugars e3 k2 d7 k2 e3, PS)",target mRNA inhibition,"HepG2, 0.1875 µM",19%
same,target mRNA inhibition,"HepG2, 0.75 µM",39%
same,target mRNA inhibition,"HepG2, 3 µM",53% and 69%
same,target mRNA inhibition,"HepG2, 12 µM",88%
"CACGCCGAGGTCCTGGTTCC (sugars e5 d10 e5, PS)",target mRNA inhibition,"HepG2, 4 µM",23%
"CAGAATCTTCAATAGACACA (sugars e5 d10 e5, PS)",target mRNA inhibition,"HepG2, 5 µM",17% and 0%
"CAGGATAACAGATGAGT (sugars e2 k2 d8 k2 e3, PS)",target mRNA inhibition,"HepG2, 0.1875 µM",62%
same,target mRNA inhibition,"HepG2, 0.75 µM",89%
same,target mRNA inhibition,"HepG2, 3 µM",95%
same,target mRNA inhibition,"HepG2, 4 µM",95%
same,target mRNA inhibition,"HepG2, 12 µM",95%
